{
  "source": "paper PMC8443589",
  "about": "“Modelling human liver fibrosis in the context of non-alcoholic steatohepatitis using a microphysiological system” (Communications Biology, 2021)",
  "key": {"[1]": {"tested_on": "liver MPS NASH model + TGFβ (PHH, KC and HSC co-cultures, high fat)", "assay": "Secreted cytokine profile of enhanced liver MPS NASH model with TGFβ dosed with OCA or ELF (Fig 6a)", "format": "cell-based, human", "conditions": "for IL-1RA production, fold change compared to control / IL-4 production, fold change compared to control / IL-6 production, fold change compared to control / IL-8 production, fold change compared to control / IP-10 production, fold change compared to control / MCP-1 production, fold change compared to control / MIP-1a production, fold change compared to control / MIP-1b production, fold change compared to control / VEGF production, fold change compared to control: vs NASH + TGFβ control", "excerpt": "The systems biology approach identified TGFβ to be a key driver in creating a more advanced NASH phenotype in the MPS model, with enhanced fibrotic markers and reduced liver function. […] Therefore, we explored how effective pharmacological intervention would be for NASH microtissues with high NPC numbers supplemented with TGFβ and exposed them to varying concentrations of OCA and ELF QD as previously described (Supp. Fig. 6a). […] OCA had the greatest effect on IL-1Rα whereas ELF had the greatest effect on MCP-1 reflecting the fact that while both candidate drugs have anti-inflammatory properties, but their mechanisms of action are different. […] Finally, we used our quantitative fibrosis imaging assay to assess the effect of each candidate drug on collagen-1 deposition and α-SMA expression (Fig. 6c). […] Both candidate drugs caused a significant reduction in collagen-1 deposition and α-SMA expression, with the highest concentrations of OCA and ELF causing an 80% reduction in α-SMA expression and a 75% reduction in collagen-1 deposition (Fig. 6c).\nFig. 6 Using enhanced liver MPS NASH model with TGFβ, Obeticholic acid and Elafibranor modulate disease phenotype to a greater extent than in standard NASH model. PHH, KC and HSC co-cultures were cultured in the MPS platform under high-fat conditions and dosed with varying concentrations of Obeticholic acid (OCA) and Elafibranor (ELF) QD or vehicle control for 10 days, following an initial 4-day pre-culture phase. Throughout the compound dosing period TGFβ was also dosed onto all microtissues (NASH only vehicle control samples were also included in the study for comparison, which were not treated with TGFβ or dosed with any compound). a The secreted cytokine profile from treated liver microtissues was compared to determine the effects of each compound on the inflammatory profile of the liver with samples analysed at day 8 and 14 of the culture. Data were normalised by Z-transformation to allow comparison of all analytes (white = undetected). b The expression of fibrosis-associated biomarkers was analysed on day 14 media samples and compared to NASH + TGFβ control samples. c Liver microtissues were stained for collagen-type I, α-SMA, nuclei (DAPI), phalloidin (green) and imaged by confocal microscopy. Representative images are shown and scale bars 200 µm. Staining of microtissues was quantified by measuring total fluorescence intensity throughout individual microtissues, each data point represents an average of all microtissues per MPS culture (min 8, max 20). All datapoints shown with error bars highlighting means ± SD, all data from a minimum of three independent cultures: all comparisons were made to NASH + TGFβ control samples.\nCytokine profiles in cell culture medium samples were also analysed by Luminex array for determination of 38 analytes in total, consisting of cytokines, chemokines, and growth factors using the MILLIPLEX MAP Human Cytokine/Chemokine Magnetic Bead Panel - Premixed 38 Plex (Merck Millipore, USA).\nLiver microtissues were cultured for 4 days in HEP-FAT medium, before dosing with obeticholic acid or elafibranor. Both compounds were dissolved in DMSO, diluted in cell culture medium (final DMSO concentration ≤1%) and added to microtissues during a full medium change every two days and in addition on the intervening days compounds were spiked into the media to increase drug concentration back to desired concentrations. Cultures were maintained in the presence of the compound, for a total of 10 days in the presence or absence of TGFβ."}, "[2]": {"conditions": "clinical dose; read-out: Plasma Cmax; cited from earlier work"}},
  "data": [
    {"smiles": "CSc1ccc(C(=O)/C=C/c2cc(C)c(OC(C)(C)C(=O)O)c(C)c2)cc1", "note": "[Elafibranor]", "values": [
      {"measurement": "IL-1RA production, fold change compared to control", "setting": "[1]; 1.3 µM, Day 8", "value": 0.9952, "unit": "fold change"},
      {"measurement": "IL-4 production, fold change compared to control", "setting": "[1]; 1.3 µM, Day 8", "value": 1.184, "unit": "fold change"},
      {"measurement": "IL-6 production, fold change compared to control", "setting": "[1]; 1.3 µM, Day 8", "value": 1.1389, "unit": "fold change"},
      {"measurement": "IL-8 production, fold change compared to control", "setting": "[1]; 1.3 µM, Day 8", "value": 1.023, "unit": "fold change"},
      {"measurement": "IP-10 production, fold change compared to control", "setting": "[1]; 1.3 µM, Day 8", "value": 1.0718, "unit": "fold change"},
      {"measurement": "MCP-1 production, fold change compared to control", "setting": "[1]; 1.3 µM, Day 8", "value": 1.264, "unit": "fold change"},
      {"measurement": "MIP-1a production, fold change compared to control", "setting": "[1]; 1.3 µM, Day 8", "value": 0.709, "unit": "fold change"},
      {"measurement": "MIP-1b production, fold change compared to control", "setting": "[1]; 1.3 µM, Day 8", "value": 0.6796, "unit": "fold change"},
      {"measurement": "VEGF production, fold change compared to control", "setting": "[1]; 1.3 µM, Day 8", "value": 1.105, "unit": "fold change"},
      {"measurement": "IL-1RA production, fold change compared to control", "setting": "[1]; 1.3 µM, Day 14", "value": 0.9067, "unit": "fold change"},
      {"measurement": "IL-4 production, fold change compared to control", "setting": "[1]; 1.3 µM, Day 14", "value": 0.6872, "unit": "fold change"},
      {"measurement": "IL-6 production, fold change compared to control", "setting": "[1]; 1.3 µM, Day 14", "value": 0.5754, "unit": "fold change"},
      {"measurement": "IL-8 production, fold change compared to control", "setting": "[1]; 1.3 µM, Day 14", "value": 0.6606, "unit": "fold change"},
      {"measurement": "IP-10 production, fold change compared to control", "setting": "[1]; 1.3 µM, Day 14", "value": 1.038, "unit": "fold change"},
      {"measurement": "MCP-1 production, fold change compared to control", "setting": "[1]; 1.3 µM, Day 14", "value": 0.8586, "unit": "fold change"},
      {"measurement": "MIP-1a production, fold change compared to control", "setting": "[1]; 1.3 µM, Day 14", "value": 0.6631, "unit": "fold change"},
      {"measurement": "VEGF production, fold change compared to control", "setting": "[1]; 1.3 µM, Day 14", "value": 1.4873, "unit": "fold change"},
      {"measurement": "IL-1RA production, fold change compared to control", "setting": "[1]; 13 µM, Day 8", "value": 1.265, "unit": "fold change"},
      {"measurement": "IL-4 production, fold change compared to control", "setting": "[1]; 13 µM, Day 8", "value": 0.7184, "unit": "fold change"},
      {"measurement": "IL-6 production, fold change compared to control", "setting": "[1]; 13 µM, Day 8", "value": 1.361, "unit": "fold change"},
      {"measurement": "IL-8 production, fold change compared to control", "setting": "[1]; 13 µM, Day 8", "value": 0.9806, "unit": "fold change"},
      {"measurement": "IP-10 production, fold change compared to control", "setting": "[1]; 13 µM, Day 8", "value": 0.6298, "unit": "fold change"},
      {"measurement": "MCP-1 production, fold change compared to control", "setting": "[1]; 13 µM, Day 8", "value": 0.7964, "unit": "fold change"},
      {"measurement": "MIP-1a production, fold change compared to control", "setting": "[1]; 13 µM, Day 8", "value": 0.7122, "unit": "fold change"},
      {"measurement": "MIP-1b production, fold change compared to control", "setting": "[1]; 13 µM, Day 8", "value": 0.7615, "unit": "fold change"},
      {"measurement": "VEGF production, fold change compared to control", "setting": "[1]; 13 µM, Day 8", "value": 1.5043, "unit": "fold change"},
      {"measurement": "IL-1RA production, fold change compared to control", "setting": "[1]; 13 µM, Day 14", "value": 1.13, "unit": "fold change"},
      {"measurement": "IL-4 production, fold change compared to control", "setting": "[1]; 13 µM, Day 14", "value": 0.4238, "unit": "fold change"},
      {"measurement": "IL-6 production, fold change compared to control", "setting": "[1]; 13 µM, Day 14", "value": 0.6467, "unit": "fold change"},
      {"measurement": "IL-8 production, fold change compared to control", "setting": "[1]; 13 µM, Day 14", "value": 0.4814, "unit": "fold change"},
      {"measurement": "IP-10 production, fold change compared to control", "setting": "[1]; 13 µM, Day 14", "value": 0.5019, "unit": "fold change"},
      {"measurement": "MCP-1 production, fold change compared to control", "setting": "[1]; 13 µM, Day 14", "value": 0.7625, "unit": "fold change"},
      {"measurement": "MIP-1a production, fold change compared to control", "setting": "[1]; 13 µM, Day 14", "value": 0.5355, "unit": "fold change"},
      {"measurement": "VEGF production, fold change compared to control", "setting": "[1]; 13 µM, Day 14", "value": 3.124, "unit": "fold change"},
      {"measurement": "IL-1RA production, fold change compared to control", "setting": "[1]; 65 µM, Day 8", "value": 0.4291, "unit": "fold change"},
      {"measurement": "IL-4 production, fold change compared to control", "setting": "[1]; 65 µM, Day 8", "value": 0.5702, "unit": "fold change"},
      {"measurement": "IL-6 production, fold change compared to control", "setting": "[1]; 65 µM, Day 8", "value": 0.5734, "unit": "fold change"},
      {"measurement": "IL-8 production, fold change compared to control", "setting": "[1]; 65 µM, Day 8", "value": 0.6965, "unit": "fold change"},
      {"measurement": "IP-10 production, fold change compared to control", "setting": "[1]; 65 µM, Day 8", "value": 0.5276, "unit": "fold change"},
      {"measurement": "MCP-1 production, fold change compared to control", "setting": "[1]; 65 µM, Day 8", "value": 0.2341, "unit": "fold change"},
      {"measurement": "MIP-1a production, fold change compared to control", "setting": "[1]; 65 µM, Day 8", "value": 0.4239, "unit": "fold change"},
      {"measurement": "VEGF production, fold change compared to control", "setting": "[1]; 65 µM, Day 8", "value": 1.511, "unit": "fold change"},
      {"measurement": "IL-1RA production, fold change compared to control", "setting": "[1]; 65 µM, Day 14", "value": 0.4779, "unit": "fold change"},
      {"measurement": "IL-4 production, fold change compared to control", "setting": "[1]; 65 µM, Day 14", "value": 0.2046, "unit": "fold change"},
      {"measurement": "IL-6 production, fold change compared to control", "setting": "[1]; 65 µM, Day 14", "value": 0.3326, "unit": "fold change"},
      {"measurement": "IL-8 production, fold change compared to control", "setting": "[1]; 65 µM, Day 14", "value": 0.254, "unit": "fold change"},
      {"measurement": "IP-10 production, fold change compared to control", "setting": "[1]; 65 µM, Day 14", "value": 0.6289, "unit": "fold change"},
      {"measurement": "MCP-1 production, fold change compared to control", "setting": "[1]; 65 µM, Day 14", "value": 0.1593, "unit": "fold change"},
      {"measurement": "VEGF production, fold change compared to control", "setting": "[1]; 65 µM, Day 14", "value": 2.734, "unit": "fold change"},
      {"measurement": "cytokine on which the drug had the greatest effect", "setting": "[1]; NASH microtissues, high NPC, + TGFβ", "value": "MCP-1"},
      {"measurement": "Cmax", "setting": "[2]", "value": 13, "unit": "µM"}
    ]}
  ]
}
